Test results from PMC9558423 (Molecular nutrition & food research, 2020).
Counter-ions that a name gives are not always drawn. Like-named read-outs stand apart in the source and are kept apart here. Marks after values point to notes of the source that are not given here.

Columns and labels:
[1] = for Qualitative Tmax (blood collection with greatest plasma level): blood every 6h, np = no peak; for Plasma AUC: plasma 0–48h, trapezoidal; for Cmax / AUC / Tmax: plasma
[2] = for Qualitative Tmax (urine collection with greatest excretion): 12h urine collections, np = no peak; for Cmax (nmol excreted) / Tmax: urine; for Cmax (nmol excreted): mean ± SD; for Time of maximal urinary excretion after dosing: as stated in text/figure legend, doses not separated; for Tmax: female, Sprague Dawley, rat, po
[3] = rat, in vivo, 350 mg/kg
[4] = High dose (1000 mg/kg bw), mean ± SD
[5] = Medium dose (350 mg/kg bw), mean ± SD
[6] = Low dose (75 mg/kg bw), mean ± SD
[7] = female, Sprague Dawley, rat, po, 75 mg/kg
[8] = female, Sprague Dawley, rat, po, 350 mg/kg
[9] = female, Sprague Dawley, rat, po, 1000 mg/kg

Molecule | Plasma AUC [1, 4] | Qualitative Tmax (urine collection with greatest excretion) ([2]; High dose (1000 mg/kg bw)) | Cmax (nmol excreted) ([2]; High dose (1000 mg/kg bw)) | Qualitative Tmax (urine collection with greatest excretion) ([2]; Low dose (75 mg/kg bw)) | Cmax (nmol excreted) ([2]; Low dose (75 mg/kg bw)) | Qualitative Tmax (urine collection with greatest excretion) ([2]; Medium dose (350 mg/kg bw)) | Cmax (nmol excreted) ([2]; Medium dose (350 mg/kg bw)) | Qualitative Tmax (blood collection with greatest plasma level) ([1]; Low dose (75 mg/kg bw)) | Cmax [1, 6] | Tmax ([2]; 350 mg/kg) | Tmax ([2]; 1000 mg/kg) | also measured
O=C(O)CCc1cccc(O)c1 [3-OH-PPA, 3-hydroxyphenylpropionic acid] | 8.00 ± 2.22 ^x uM*h | 12 to 24 h | 275 ± 34 nmol excreted | 0 to 12 h | 25.4 ± 6.9 nmol excreted | 0 to 12 h | 177 ± 24 nmol excreted |  |  |  |  | Qualitative Tmax (blood collection with greatest plasma level) ([1]; High dose (1000 mg/kg bw)): 12 h; Cmax [1, 4]: 0.507 ± 0.107 µM; Qualitative Tmax (blood collection with greatest plasma level) ([1]; Medium dose (350 mg/kg bw)): 12 h; Plasma AUC [1, 5]: 2.46 ± 0.95 ^w uM*h; Cmax [1, 5]: 0.161 ± 0.092 µM
COc1ccc(-c2oc3cc(O)cc(O)c3c(=O)c2O)cc1O [4-OMe-quercetin, 4-methoxyquercetin] |  |  |  |  |  |  |  |  |  |  |  | Qualitative Tmax (urine collection with greatest excretion) [3]: 0 to 12 h
COc1cc(/C=C/C(=O)O)ccc1OS(=O)(=O)O [Ferulic acid sulfate] | 9.12 ± 2.89 ^x uM*h | 0 to 12 h | 18.7 ± 14.9 nmol excreted | np | np | 0 to 12 h | 7.41 ± 3.52 nmol excreted | np | np |  |  | Qualitative Tmax (blood collection with greatest plasma level) ([1]; High dose (1000 mg/kg bw)): 6 h; Cmax [1, 4]: 0.825 ± 0.317 µM; Plasma AUC [1, 6]: 6.16 ± 1.50 ^x uM*h; Qualitative Tmax (blood collection with greatest plasma level) ([1]; Medium dose (350 mg/kg bw)): 6 h; Plasma AUC [1, 5]: 6.33 ± 3.04 ^x uM*h; Cmax [1, 5]: 0.262 ± 0.169 µM
COc1cc(/C=C/C(=O)O)ccc1O [Ferulic acid, ferulic acid] | trace | 0 to 24 h |  | np | np | 0 to 24 h | 11.7 ± 3.0 nmol excreted |  |  |  |  | 
O=C(O)CNC(=O)c1ccccc1 [Hippuric acid, hippuric acid] |  |  | 598 ± 146 nmol excreted | np | np |  | 700 ± 78 nmol excreted | np | np | 12 to 24 h | 12 to 24 h | AUC [1, 7]: 25.8 ± 3.08 µM·h; AUC [1, 8]: 47.7 ± 5.13 µM·h; Cmax [1, 8]: 1.54 ± 0.51 µM; Tmax [1, 8]: 12 h; AUC [1, 9]: 74.3 ± 7.54 µM·h; Cmax [1, 9]: 2.06 ± 0.806 µM; Tmax [1, 9]: 24 to 36 h; Time of maximal urinary excretion after dosing [2]: 12 to 24 h; Amount excreted in urine, medium vs high dose ([2]; medium (350) vs high (1000 mg/kg bw) dose): no difference
COc1cc(-c2[o+]c3cc(O)cc(O)c3cc2O[C@@H]2O[C@H](CO)[C@@H](O)[C@H](O)[C@H]2O)cc(O)c1O [Petunidin Glucoside, petunidin-3-O-glucoside] |  | 0 to 12 h | 0.94 ± 0.19 nmol excreted | np | np | 0 to 12 h | 0.37 ± 0.14 nmol excreted |  |  |  |  | 
O=C(O)[C@H]1O[C@@H](Oc2c(-c3ccc(O)c(O)c3)oc3cc(O)cc(O)c3c2=O)[C@H](O)[C@@H](O)[C@@H]1O [Quercetin glucuronide, quercetin-3-O-glucuronide] |  |  | 1.83 ± 0.28 nmol excreted | np | np |  | 0.72 ± 0.14 nmol excreted | np | np | 0 to 12 h | 0 to 12 h | AUC [1, 7]: 0.32 ± 0.01 µM·h; AUC [1, 8]: 0.34 ± 0.05 µM·h; Cmax [1, 8]: 0.008 ± 0.002 µM; Tmax [1, 8]: 6 h; AUC [1, 9]: 0.57 ± 0.14 µM·h; Cmax [1, 9]: 0.023 ± 0.005 µM; Tmax [1, 9]: 6 h
O=c1c(O)c(-c2ccc(O)c(O)c2)oc2cc(O)cc(O)c12 [Quercetin, quercetin] |  |  | 11.5 ± 4.0 nmol excreted |  | 3.88 ± 1.46 nmol excreted |  | 10.1 ± 7.4 nmol excreted |  |  | 0 to 12 h | 0 to 12 h | Tmax ([2]; 75 mg/kg): 0 to 12 h
COc1cc(C(=O)O)cc(OC)c1O [Syringic acid, syringic acid] | trace |  | 35.1 ± 6.0 nmol excreted |  | 1.03 ± 0.30 nmol excreted |  | 12.2 ± 3.0 nmol excreted |  |  | 0 to 12 h | 0 to 12 h | Time of maximal urinary excretion after dosing [2]: ≤ 12 h; Tmax ([2]; 75 mg/kg): 0 to 12 h
Caffeic acid glucuronide | 0.92 ± 0.20 ^y uM*h | 0 to 12 h | 379 ± 134 nmol excreted | np | np | 0 to 12 h | 261 ± 50 nmol excreted | np | np |  |  | Qualitative Tmax (blood collection with greatest plasma level) ([1]; High dose (1000 mg/kg bw)): 6 h; Cmax [1, 4]: 0.084 ± 0.02 µM; Plasma AUC [1, 6]: 0.36 ± 0.06 ^w uM*h; Qualitative Tmax (blood collection with greatest plasma level) ([1]; Medium dose (350 mg/kg bw)): 6 h; Plasma AUC [1, 5]: 0.55 ± 0.11 ^x uM*h; Cmax [1, 5]: 0.021 ± 0.008 µM
Caffeic acid sulfate |  | 0 to 12 h | 9.74 ± 0.78 nmol excreted | np | np | 0 to 12 h | 6.43 ± 4.57 nmol excreted |  |  |  |  | 
delphinidin sulfate |  | 0 to 24 h | 20.2 ± 2.4 nmol excreted | np | np | 0 to 24 h | 18.2 ± 2.4 nmol excreted |  |  |  |  | 
petunidin glucuronide |  | 0 to 12 h | 3.49 ± 0.46 nmol excreted | np | np | 0 to 12 h | 0.92 ± 0.24 nmol excreted |  |  |  |  | 
